Experimental data: PMC9016807, “Metabolic, Pharmacokinetic, and Activity Profile of the Liver Stage Antimalarial (RC-12)” (ACS Omega, 2022)
Entries after “also recorded” stand apart in the source; their conditions may differ. Like-named read-outs stand apart in the source and are kept apart here.

Experiments:
[1] = Metabolism in human liver microsomes; assay type: in vitro ADME; details: 0.4 mg/mL protein; for microsomal CLint at 1 μM: human, liver microsomes, read-out: CLint of authentic metabolite incubated; for average individual metabolite formed over a 60 min incubation of 1: substrate 1 at 1 μM, percentage of initial substrate concentration, ND = not detected
Procedure: (§1) Following the protocols described by Charman et al.,[28]1 was incubated at 37 °C with human, rat, and rhesus monkey liver microsomes. For the determination of intrinsic clearance, the substrate concentration was 1 μM and the protein concentration was 0.4 mg/mL; for qualitative metabolite identification studies, the substrate and protein concentrations were 10 μM and 1 mg/mL, respectively. The reaction was initiated by the addition of an NADPH-regenerating buffer system, and the samples were incubated for up to 60 (for Clint determination) or 180 min (for additional metabolite identification). Samples without the test compound and without NADPH were also incubated and used as controls. The reaction was quenched by protein precipitation with the addition of an equal volume of ice-cold acetonitrile solution (containing diazepam as an internal standard), followed by vortexing and centrifugation for 3 min at 10000 rpm. The supernatant was removed and analyzed by LC/MS. LC/MS analysis was conducted using a Waters Micromass Xevo G2 QTOF MS coupled to a Waters Acquity UPLC. For metabolite identification, a Supelco Ascentis Express Amide column (50 × 2.1 mm, 2.7 μm) was used with an acetonitrile–water gradient (containing 0.05% formic acid), a flow rate of 0.4 mL/min, a gradient cycle time of 6 min, and an injection volume of 5 μL. MS analysis was conducted using positive mode electrospray ionization under MSE acquisition mode, which allows simultaneous acquisition of MS spectra at low and high collision energies. The identity of putative metabolites was confirmed by the accurate mass and a comparison of the retention times and MS/MS fragmentation patterns with authentic metabolites where available. For metabolite quantitation, the method described below for the analysis of plasma samples was used.

[2] = Metabolism in rhesus monkey liver microsomes; assay type: in vitro ADME; details: 0.4 mg/mL protein; for microsomal CLint at 1 μM: rhesus monkey, liver microsomes, read-out: CLint of authentic metabolite incubated; for average individual metabolite formed over a 60 min incubation of 1: substrate 1 at 1 μM, percentage of initial substrate concentration, ND = not detected
Procedure: as §1

[3] = Metabolism in rat liver microsomes; assay type: in vitro ADME; details: 0.4 mg/mL protein; for CLint of authentic metabolite incubated / microsomal CLint at 1 μM: 1 μM substrate, NADPH, 37 °C, 60 min, single incubation; for microsomal CLint at 1 μM: rat, liver microsomes, read-out: CLint of authentic metabolite incubated; for average individual metabolite formed over a 60 min incubation of 1: substrate 1 at 1 μM, percentage of initial substrate concentration, ND = not detected
Procedure: as §1

[4] = Pharmacokinetics in rats after IV and PO administration; assay type: in vivo, male Sprague–Dawley rats; details: for metabolite in urine, percentage of the 1 dose: after IV administration of 1; for dose excreted: male, Sprague-Dawley, rat, urine, after oral administration of 1 at 27 mg/kg, read-out: recovery of metabolite in urine, percentage of the 1 dose
Procedure: Animal studies were conducted using established procedures in accordance with the Australian Code of Practice for the Care and Use of Animals for Scientific Purposes, and the study protocols were reviewed and approved by the Monash Institute of Pharmaceutical Sciences Animal Ethics Committee. The study was conducted in overnight-fasted male Sprague–Dawley rats weighing 266–292 g. Rats had access to water ad libitum throughout the pre- and postdose sampling period, and access to food was reinstated 4 h postdose. Compound 1 was administered intravenously as a 10 min constant rate infusion via an indwelling jugular vein cannula (1 mL per rat, n = 5 rats) and orally by gavage (10 mL/kg per rat, n = 2–3 rats), and samples of arterial blood and total urine were collected up to 24 h postdose. Arterial blood was collected directly into borosilicate vials (at 4 °C) containing heparin. Blood samples were centrifuged, and the supernatant plasma was removed and stored frozen (−80 °C) until analysis by LC-MS. Plasma samples and calibration standards (prepared in blank rat plasma) were processed by protein precipitation with a 2-fold volume of acetonitrile. LC-MS analysis was conducted using a Waters Micromass Quattro Premier triple-quadrupole mass spectrometer coupled to a Waters Acquity UPLC with a Phenomenex C18 Kinetex column (50 × 2.1 mm, 2.7 μm). Elution was achieved using a methanol–water gradient (containing 8.2 mM formic acid and 1.25 mM ammonium formate) with a flow rate of 0.6 mL/min, a gradient cycle time of 6 min, and an injection volume of 2 μL. MS detection was conducted using positive electrospray ionization with multiple reaction monitoring. Transitions (m/z), cone voltages (V), and CID voltages (V) were as follows: 1, 430.26 > 99.93, 40, 20; 2, 416.27 > 99.80, 30, 20; 3, 402.22 > 99.93, 35, 20; 4, 388.23 > 99.86, 35, 20; 5: 374.25 > 72.01, 35, 25; diazepam (285.25 > […], 40, 25) (used as an internal standard). The quantitation range in plasma was typically 1–10000 ng/mL, and the accuracy and precision were within ±10% and <10%, respectively, for each analyte. Urine samples were analyzed using either a 20- or 200-fold dilution with 50% acetonitrile and assayed against calibration standards prepared in the same solvent.

[5] = tested on: P. vivax liver-stage parasites; assay: P. vivax liver-stage in vitro assay, prophylactic mode; assay type: cell-based, Plasmodium vivax
Procedure: (§2) Compound 1 and its metabolites were tested in both prophylactic and radical cure modes for activity against P. vivax liver-stage parasites.[16],[17] In the prophylactic assay, compounds are added the day after sporozoite invasion into hepatocytes in order to characterize the compound activity against established liver forms with a parasitophorous vacuole membrane (as opposed to activity on preinvasion sporozoites) and prior to complete maturation of hypnozoites into drug-insensitive dormant forms, which appear at about 5 days postinvasion.[18] In the radical cure assay, compounds are added at day 5 postinfection to characterize activity against late-stage schizonts and mature PI4K inhibitor-insensitive hypnozoites.[19] In these experiments, the threshold for activity is 75% inhibition. […] Similarly, as previously described,[20] 10 μM concentrations of 1 and its metabolites were also tested for activity against P. cynomolgi schizont (large forms) and hypnozoite (small forms) liver-stage parasites cultured in rhesus monkey hepatocytes. In these experiments, the threshold for activity is 50% inhibition.
(§3) Compounds were prepared as 20 mM stock solutions in DMSO and tested in an eight-point semilog (1/3) dilution series from 20 μM in 384-well assay plates in both prophylactic and radical cure mode against P. vivax liver-stage parasites as previously described.[16] Following ethical approval from the Institutional Ethics Committee of the Thai Ministry of Public Health, the Ethical Review Committee of Faculty of Tropical Medicine, Mahidol University (TMEC 11-008 and 14-016), the Oxford Tropical Medicine Ethical Committee, Oxford University, England (OxTREC 17-11 and 40–14), and the Cambodian National Ethics Committee for Health Research (101NECHR), isolates of P. vivax infected blood were collected from patent volunteers in Tak province, Thailandm and Mondulkiri province, Cambodia. Samples were collected by venipuncture into heparin tubes prior to replacement of patient serum with nonimmune AB human serum and feeding to laboratory-reared Anopheles dirus cracens or An. dirus A mosquitoes via water-jacket artificial membrane feeders or the Hemotek insect feeding system (Hemotek, Blackburn, UK) set to maintain the bloodmeal temperature at 37 °C. […] Cryopreserved human hepatocytes (BioIVT, Baltimore, Maryland, USA) were thawed into InVitroGro CP Medium (BioIVT), quantified for viability by trypan blue dye exclusion, diluted to 800–1000 live cells per microliter, and 18000 live cells were plated into each well of a collagen-coated 384-well plate (Greiner, Monroe, NC, USA) by a 16-channel pipet (Finnpipette, Thermo Fisher Scientific, Waltham, MA). […]

[6] = tested on: P. vivax liver-stage parasites; assay: P. vivax liver-stage in vitro assay, radical cure mode; assay type: cell-based, Plasmodium vivax; details: Plasmodium vivax
Procedure: as §2, §3

[7] = tested on: P. cynomolgi schizont (large forms) and hypnozoite (small forms) liver-stage parasites; assay: P. cynomolgi liver-stage in vitro assay in rhesus monkey hepatocytes; assay type: cell-based; details: Plasmodium cynomolgi, Hepatocyte, in Macaca mulatta
Procedure: as §2

[8] = 1 μM substrate, NADPH, 37 °C, 60 min, single incubation
[9] = control drug, read-out: IC50 (hypnozoites)
[10] = control drug, read-out: IC50 (schizonts)

For `CCN(CC)CCN(CCN(CC)CC)c1cc(OC)c(O)cc1Br` [Compound 2, N,N-Bis[2-(diethylamino)ethyl]-2-bromo-4-hydroxy-5-methoxyaniline 1,5-Naphthalenedisulfonate], which microsomal CLint at 1 μM [1, 8] is on record?
The microsomal CLint at 1 μM was < 3 µL/min/mg.

What about the “average individual metabolite formed over a 60 min incubation of 1” value [1] of the same compound?
Its value is 0.2%.

And the microsomal CLint at 1 μM [2, 8]?
The microsomal CLint at 1 μM was 8 µL/min/mg.

And the “average individual metabolite formed over a 60 min incubation of 1” value [2]?
Its value is 15%.

What about the “CLint of authentic metabolite incubated” value [3] of the same compound?
Its value is “highly unstable”.

And the microsomal CLint at 1 μM [3]?
Its microsomal CLint at 1 μM is 264 µL/min/mg.

For `CCNCCN(CCN(CC)CC)c1cc(OC)c(OC)cc1Br` [Compound 3, N-[2-(Ethylamino)ethyl]-N-[2-(diethylamino)ethyl]-2-bromo-4,5-dimethoxyaniline 1,5-Naphthalenedisulfonate], which microsomal CLint at 1 μM [1, 8] is on record?
Its microsomal CLint at 1 μM is < 3 µL/min/mg.

What about the “average individual metabolite formed over a 60 min incubation of 1” value [1] of the same compound?
Its value is 1.6%.

What about the microsomal CLint at 1 μM [2, 8] of the same compound?
The microsomal CLint at 1 μM was 19 µL/min/mg.

What about the “average individual metabolite formed over a 60 min incubation of 1” value [2] of the same compound?
The value was 20%.

What about the microsomal CLint at 1 μM [3] of the same compound?
The microsomal CLint at 1 μM was 24 µL/min/mg.

What about the “average individual metabolite formed over a 60 min incubation of 1” value [3] of the same compound?
Its value is 64%.

And the “metabolite in urine, percentage of the 1 dose” value [4]?
The value was 1.7%.

And the dose excreted [4]?
Its dose excreted is 3.3%.

What does the source list for `CCNCCN(CCN(CC)CC)c1cc(OC)c(O)cc1Br` [Compound 4, N-[2-(Ethylamino)ethyl]-N-[2-(diethylamino)ethyl]-2-bromo-4-hydroxy-5-methoxyaniline 1,5-Naphthalenedisulfonate]?
microsomal CLint at 1 μM [1, 8]: < 3 µL/min/mg; microsomal CLint at 1 μM [2, 8]: 12 µL/min/mg; average individual metabolite formed over a 60 min incubation of 1 [2]: 2.4%; microsomal CLint at 1 μM [3]: 45 µL/min/mg; average individual metabolite formed over a 60 min incubation of 1 [3]: 6.4%; IC50 ([5]; Plasmodium vivax, n = 3, read-out: IC50 against schizonts): 2630 nM; IC50 ([6]; n = 2, read-out: IC50 against schizonts): 15500 nM; inhibition at 10 µM ([7]; 10 μM, first run, read-out: inhibition of growth of the schizont (large forms)): 70%

Which microsomal CLint at 1 μM [1, 8] does the source give for `CCNCCN(CCNCC)c1cc(OC)c(OC)cc1Br` [Compound 5, N,N-Bis[2-(ethylamino)ethyl]-2-bromo-4,5-dimethoxyaniline 1,5-naphthalenedisulfonate] here?
Its microsomal CLint at 1 μM is 6 µL/min/mg.

And the microsomal CLint at 1 μM [2, 8]?
The microsomal CLint at 1 μM was 7.3 µL/min/mg.

And the “average individual metabolite formed over a 60 min incubation of 1” value [2]?
The value was 1.4%.

And the microsomal CLint at 1 μM [3]?
Its microsomal CLint at 1 μM is 4.4 µL/min/mg.

And the “average individual metabolite formed over a 60 min incubation of 1” value [3]?
The value was 25%.

What about the “metabolite in urine, percentage of the 1 dose” value [4] of the same compound?
The value was 1.2%.

What about the dose excreted [4] of the same compound?
Its dose excreted is 3%.

With `Br.Br.Br.CCN(CC)CCN(CCN(CC)CC)c1cc(O)c(OC)cc1Br` [Compound 6, N,N-Bis[2-(diethylamino)ethyl]-2-bromo-5-hydroxy-4-methoxyaniline trihydrobromide] as the compound, how does the “CLint of authentic metabolite incubated” value [1, 8] read?
Its value is “very unstable; also recorded: highly unstable in all species”.

What about the “CLint of authentic metabolite incubated” value [2, 8] of the same compound?
The value was “very unstable; also recorded: highly unstable in all species”.

What about the “CLint of authentic metabolite incubated” value [3] of the same compound?
The value was “very unstable; also recorded: highly unstable in all species”.

For `CNC(=O)c1ccc(-c2cnc3cnc(C(=O)N(C)c4ccc(Cl)cc4)cn23)cc1` [KDU691, reference compound], which IC50 [5, 9] is on record?
The IC50 was 53.5 nM.

What about the IC50 [5, 10] of the same compound?
Its IC50 is 11.4 nM.

What does the source list for `CC[C@@]1([C@@H]2O[C@@H]([C@H]3O[C@@](O)(CO)[C@H](C)C[C@@H]3C)C[C@@H]2C)CC[C@H]([C@]2(C)CC[C@]3(C[C@H](O)[C@@H](C)[C@@H]([C@@H](C)[C@@H](OC)[C@H](C)C(=O)O)O3)O2)O1` [monensin, reference compound]?
IC50 [6, 9]: 102 nM; IC50 [6, 10]: 12.4 nM

What does the source list for `COc1cc(NC(C)CCCN)c2ncccc2c1` (centres unmarked) [primaquine]?
IC50 ([7]; read-out: IC50 against the hypnozoite (small forms)): 2700 nM; IC50 ([7]; read-out: IC50 against the schizont (large forms)): 1100 nM
